Data from ChEMBL document CHEMBL3507680, “University of Dundee, Gates Library screen for HepG2 cell viability”.

Assay: Human HepG2 cell viability assay in 384 well format
Format: toxicity, cell-based
Parameters: dose 125 nL, time 70.5 hour; concentration not given beside the values
Conditions: HepG2 cells, read-out: Inhibition

Row | Structure (SMILES) | cytotoxicity at 70.5 h
1 | Nc1cc(-c2cccs2)nn(CC(=O)NCC2CCCCC2)c1=O | -10%
2 | CCN(Cc1ccccc1)C(=O)c1cc(C2CCCN2C)ccn1 (configuration not stated) | 10.8%
3 | COCC(=O)N1CCC(c2cc(C(F)(F)F)c3c(C)noc3n2)CC1 | 12.4%
4 | Cc1cc(-c2cc(N)c(=O)n(CC(=O)NCC3CCCCC3)n2)c(C)o1 | 12.5%
5 | Cc1ccc(S(=O)(=O)N2C[C@H]3C[C@H](NC(=O)C(C)C)[C@H]3C2)cc1 | 20.3%
6 | Cc1ccc2c(c1)C(=O)NCC1(CCN(C(=O)c3ccccn3)CC1)O2 | -7.17%
7 | Cc1ccc2c(c1)C(=O)NCC1(CCN(C(=O)c3cc(C)no3)CC1)O2 | -7.27%
8 | Cc1ccc2c(c1)C(=O)NCC1(CCN(C(=O)c3ccnn3C)CC1)O2 | -4.65%
9 | Cc1cccc(C(=O)N2C[C@@H]3CC[C@H](Oc4cccc(F)c4)[C@@H]3C2)n1 | -5.82%
10 | NCc1cnn(-c2ccccc2C(=O)NCCc2ccccn2)c1 | -6.02%
11 | COCCNC(=O)c1ccccc1-n1cc(CN)cn1 | -1.19%
12 | Cc1ccc(CC(=O)N(C)CC2(O)CCCN(c3ccccn3)C2)s1 (configuration not stated) | -5.95%
13 | O=c1ccn([C@H]2CCN(Cc3ncc[nH]3)CC[C@@H]2O)c(=O)[nH]1 | -4.85%
14 | Cc1ccc(CN2CC[C@H](O)[C@@H](n3ccc(=O)[nH]c3=O)CC2)cc1 | -2.58%
15 | Cc1noc(C)c1-c1cncc(C2CCCN2Cc2nccs2)n1 (configuration not stated) | -9.87%
16 | Cc1noc(C)c1-c1cncc(C2CCCN2Cc2cn(C)cn2)n1 (configuration not stated) | -5.21%
17 | Fc1ccc(CN2CCCC(c3nccnc3-n3ccnc3)C2)cc1 (configuration not stated) | 3.95%
18 | NCCn1nc(C2CCN(Cc3ccccc3Cl)C2)c2nccnc21 (configuration not stated) | -4.18%
19 | CSCC[C@H]1CN2CCC[C@H]2CN1Cc1cn(C)nc1C | -3.69%
20 | CSCC[C@@H]1CN2CCC[C@H]2CN1Cc1cn(C)nc1C | 19.2%
21 | Cc1nc[nH]c1CN1CCN(C2CCOCC2)CC(C(N)=O)C1 (configuration not stated) | -9.69%

Row | Structure (SMILES) | cytotoxicity at 70.5 h
22 | Cc1nn(C)c(C)c1-c1cnc(C2CCCN(C)C2)cn1 (configuration not stated) | -7.8%
23 | CCCNC(=O)c1cncc(CC2CCCN(C)C2)c1 (configuration not stated) | -6.34%
24 | CC(C)N(Cc1ccccc1)C(=O)c1cc(C2CCCN2C)ccn1 (configuration not stated) | -6.6%
25 | CCc1nnc(Nc2cccc(C3CCN(C(=O)CO)CC3)n2)s1 | -4.24%
26 | Cc1cccnc1C(=O)N1C[C@@H]2CC[C@H](Oc3cccc(F)c3)[C@@H]2C1 | -8.25%
27 | CCc1cc(C(F)(F)F)c2c(C3CCN(C(=O)COC)CC3)noc2n1 | -6.22%
28 | COCCC(=O)N1CCCC(c2noc3nc(C)cc(C(F)(F)F)c23)C1 (configuration not stated) | -5.21%
29 | COCC(=O)N1CCCC(c2noc3nc(C)cc(C(F)(F)F)c23)C1 (configuration not stated) | 12.8%
30 | Cc1ccc(-n2c(SCC(=O)O)nnc2-c2ccccc2)cc1 | -7.44%
31 | Cc1ccc(-n2c(SCC(=O)O)nnc2-c2cccc(C)c2)cc1 | -7.34%
32 | CC(=O)N1CCC(Cc2cnc(C(=O)N3CCCC3)cn2)C1 (configuration not stated) | -4.28%
33 | Cc1nc(C2CN(C)CCO2)cc(N2CCSCC2)n1 (configuration not stated) | 26.1%
34 | N#Cc1ccc(CN2CCCCC2Cn2cncn2)cc1 (configuration not stated) | 11.7%
35 | Cn1ccc(C(=O)Nc2nc(-c3ccc4c(c3)CCO4)cs2)cc1=O | -6.04%
36 | COC(=O)C(C)CN(C)S(=O)(=O)c1c(Br)cc2[nH]c(=O)oc2c1Cl (configuration not stated) | -4.98%
37 | CCNC(=O)CN(CC)S(=O)(=O)c1c(Br)cc2[nH]c(=O)oc2c1Cl | -12.3%
38 | CC(C)(C)OC(=O)N[C@H]1CCN(C(=O)c2cc(Cl)c[nH]2)C1 | -4.47%
39 | CCc1cnc(CN(C)C(=O)Nc2cnc3c(c2)c(C)nn3C)s1 | -2.27%
40 | COc1ccc(CNCc2cc(Br)c3c(c2)OCO3)cc1 | -3.3%
41 | N#Cc1ccc(CN2CCCC(Cn3cncn3)C2)c(F)c1 (configuration not stated) | 8.28%
42 | CNC(=O)N1CCOC(C)(c2cnn(C)c2)C1 (configuration not stated) | -5.87%

Row | Structure (SMILES) | cytotoxicity at 70.5 h
43 | COc1ccccc1CC1CCCN(C(=O)c2nccnc2N)C1 (configuration not stated) | -6.5%
44 | N#Cc1cc(F)ccc1CN1CCCCC1Cn1cncn1 (configuration not stated) | -4.9%
45 | CC(=O)N1CCCN(CCCSc2ccccc2Cl)CC1 | -6.8%
46 | Cc1ccc(CNCc2cc(Br)c3c(c2)OCO3)cc1 | -5.25%
47 | N#Cc1cccc(CN2CCCC2Cn2cncn2)c1 (configuration not stated) | -4.98%
48 | CC(=O)N1CCCN(CCCSCc2ccccc2)CC1 | -6.67%
49 | COC(=O)c1cc(NCc2cscn2)ccc1C | -4.82%
50 | CN(Cc1cc(Cl)cc2cccnc12)CC1CCN(CCO)CC1 | -2.37%
51 | CC(c1nc(-c2ccccc2)no1)N1CCc2c(ncn2C2CC2)C1 (configuration not stated) | -2.24%
52 | CCNC(=O)c1ccc(NC(=O)N(C)Cc2cccn2C)c(C)c1 | 5.27%
53 | CCC1(CC)CC(=O)N(CC(O)c2ccc(Cl)cc2)C1=O (configuration not stated) | -4.91%
54 | COCCCNC(=O)Nc1c(C)cccc1C(C)C | -9.85%
55 | COCC(C)NC(=O)c1sccc1-n1cnnn1 (configuration not stated) | -2.58%
56 | O=S(=O)(NCCCn1cncn1)c1ccc2c(c1)CCC2 | -5.6%
57 | OC(CNCCc1nnc2ccccn12)c1ccc2c(c1)OCO2 (configuration not stated) | -5.97%
58 | CCc1cccc(C)c1NC(=O)NCCCN(CC)S(C)(=O)=O | -3.01%
59 | CCN(CCCNC(=O)Nc1ccccc1C(C)C)S(C)(=O)=O | -4.67%
60 | C[S+]([O-])c1cccc(NC(=O)N[C@H](CCO)c2ccccc2)c1 (some centres not stated) | -2.3%
61 | Cc1nnc(CN(C)CC(=O)NC(C)(C)c2ccc(F)cc2)n1C | -6.19%
62 | Cc1ccc(S(=O)(=O)Cc2nnc(C)n2C)cc1 | -2.49%
63 | O=C(Nc1ccc2c(c1)C(=O)NC2=O)c1cccs1 | -4.03%

Row | Structure (SMILES) | cytotoxicity at 70.5 h
64 | CC(C)c1nnc2n1CCN(Cc1cccc3c1OCCO3)C2 | 30%
65 | CC1CCC(O)(CSc2nnnn2C2CC2)CC1 (configuration not stated) | -1.68%
66 | O=S(=O)(NCCCn1cncn1)c1ccc2c(c1)CCO2 | -5.26%
67 | CC1CN(CC(=O)NCCc2ccccc2)CCN1c1nccs1 (configuration not stated) | -5.41%
68 | COc1ccccc1CNC(=O)N1CCCC(CO)C1 (configuration not stated) | 11.7%
69 | COc1cc(NC(=O)c2cccc(N(C)C)c2)cc(OC)c1 | -7.19%
70 | CCc1noc(C(C)N2CCC(NS(=O)(=O)c3cccs3)CC2)n1 (configuration not stated) | -11.6%
71 | CC(c1nc(C2CC2)no1)N1CCC(NS(=O)(=O)c2cccs2)CC1 (configuration not stated) | -13.4%
72 | COc1cc(C(=O)NC2COc3ccccc3C2)ccc1OCC(N)=O (configuration not stated) | -9.85%
73 | O=C(CN1CCc2cncnc2C1)NC1CCCCNC1=O (configuration not stated) | 0.54%
74 | CCn1ccnc1CN1CCCN(C(=O)c2cncnc2C)CC1 | 0.803%
75 | NC1(c2nc(-c3cccs3)cc(=O)[nH]2)CCCC1 | 8.08%
76 | Cn1nc2c(cc1=O)CN(CC(=O)NC1CCCCNC1=O)CC2 (configuration not stated) | 12.7%
77 | O=C(NCCc1nncn1C1CC1)C1SCCc2sccc21 (configuration not stated) | -8.14%
78 | O=C(CCC1CCCC1)N1CCCC(c2ncc3c(n2)CCNC3)C1 (configuration not stated) | -1.37%
79 | CC(c1ccc(F)cc1F)N1CCN(CCC(=O)O)CC1 (configuration not stated) | -6.34%
80 | CC(C)c1ncc(CN2CCC(CO)C2)cn1 (configuration not stated) | -4.22%
81 | Cc1cc(C[C@@H]2COC[C@H]2NCc2ccc(Cl)c(Cl)c2)on1 | 19.8%
82 | CC1CCCN(Cc2ccnc(-c3cccnc3)n2)C1 (configuration not stated) | -13%
